# Assay results taken from patent US9365576B2, “Pyrrolopyrrolidinone compounds” (Novartis AG, priority 2012, dated 2016).
# Biological target: human MDM2 protein (amino acids 2-188) (Homo sapiens (Human), UniProt Q00987)
# Assay: TR-FRET assay, p53-MDM2 Assay 2 (modified)
# Type: binding
# Conditions: TR-FRET; 0.1 nM MDM2, 0.1 nM Europium labeled streptavidin, Tecan genios Pro reader; read-out: IC50 p53-MDM2 Assay 2
# Method in brief: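 IC50 values were curve-fitted from the time-resolved 665/620 nm emission ratio after 340 nm excitation. The assay combined 0.625 nM europium-streptavidin donor with 1.25 nM C-terminally biotinylated MDM2 2–188 (15 min, RT), followed by 15 min with 10 nM Cy5-labeled p53 18–26 acceptor peptide.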
# Chain of human MDM2 protein (amino acids 2-188) (Q00987 2-188): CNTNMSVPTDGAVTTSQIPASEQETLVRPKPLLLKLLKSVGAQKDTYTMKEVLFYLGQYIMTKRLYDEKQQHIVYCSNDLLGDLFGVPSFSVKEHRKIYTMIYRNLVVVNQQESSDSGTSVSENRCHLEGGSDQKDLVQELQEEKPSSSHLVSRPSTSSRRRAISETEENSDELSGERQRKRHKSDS
row,IC50,Compound
1,0.148 nM,"CNC(=O)Cc1ccc(OC)c(-c2cc3c(n2C(C)C)C(c2ccc(Cl)cc2)N(c2cc(Cl)ccc2C)C3=O)c1 (stereo not shown) [Example 81, 2-{3-[5-(5-Chloro-2-methyl-phenyl)-6-(4-chloro-phenyl)-1-isopropyl-4-oxo-1,4,5,6-tetrahydro-pyrrolo[3,4-b]pyrrol-2-yl]-4-methoxy-phenyl}-N-methyl-acetamide]"
2,4.16 nM,"CCOC(=O)Cc1cnc(OC)c(-c2cc3c(n2C(C)C)C(c2ccc(C#N)cc2)N(c2cccc(Cl)c2F)C3=O)c1 (stereo not shown) [Example 83, {5-[5-(3-Chloro-2-fluoro-phenyl)-6-(4-cyano-phenyl)-1-isopropyl-4-oxo-1,4,5,6-tetrahydro-pyrrolo[3,4-b]pyrrol-2-yl]-6-methoxy-pyridin-3-yl}-acetic acid ethyl ester]"
3,0.334 nM,"CNC(=O)Cc1cc(-c2cc3c(n2C(C)C)C(c2ccc(C#N)cc2)N(c2cccc(Cl)c2F)C3=O)c(OC)cn1 (stereo not shown) [Example 86, 2-{4-[5-(3-Chloro-2-fluoro-phenyl)-6-(4-cyano-phenyl)-1-isopropyl-4-oxo-1,4,5,6-tetrahydro-pyrrolo[3,4-b]pyrrol-2-yl]-5-methoxy-pyridin-2-yl}-N-methyl-acetamide]"
4,0.359 nM,"COc1cnc(CC#N)cc1-c1cc2c(n1C(C)C)C(c1ccc(C#N)cc1)N(c1cccc(Cl)c1F)C2=O (stereo not shown) [Example 87, 4-[5-(3-Chloro-2-fluoro-phenyl)-2-(2-cyanomethyl-5-methoxy-pyridin-4-yl)-1-isopropyl-4-oxo-1,4,5,6-tetrahydro-pyrrolo[3,4-b]pyrrol-6-yl]-benzonitrile]"
5,0.08 nM,"COc1ccc(C(=O)O)cc1-c1cc2c(n1C(C)C)[C@H](c1ccc(Cl)cc1)N(c1cc(Cl)ccc1C)C2=O [Example 89, 3-[(S)-5-(5-Chloro-2-methyl-phenyl)-6-(4-chloro-phenyl)-1-isopropyl-4-oxo-1,4,5,6-tetrahydro-pyrrolo[3,4-b]pyrrol-2-yl]-4-methoxy-benzoic acid]"
6,6.21 nM,"COc1ccc(C(=O)O)cc1-c1cc2c(n1C(C)C)[C@@H](c1ccc(Cl)cc1)N(c1cc(Cl)ccc1C)C2=O [Example 90, 3-[(R)-5-(5-Chloro-2-methyl-phenyl)-6-(4-chloro-phenyl)-1-isopropyl-4-oxo-1,4,5,6-tetrahydro-pyrrolo[3,4-b]pyrrol-2-yl]-4-methoxy-benzoic acid]"
7,0.188 nM,"COc1nc(N(C)C)ncc1-c1cc2c(n1C(C)C)C(c1ccc(C#N)cc1)N(c1cccc(Cl)c1F)C2=O (stereo not shown) [Example 94, 4-[5-(3-Chloro-2-fluoro-phenyl)-2-(2-dimethylamino-4-methoxy-pyrimidin-5-yl)-1-isopropyl-4-oxo-1,4,5,6-tetrahydro-pyrrolo[3,4-b]pyrrol-6-yl]-benzonitrile]"
8,1.44 nM,"COc1nc(N)ncc1-c1cc2c(n1C(C)C)C(c1ccc(Cl)cc1)N(c1cc(Cl)ccc1C#N)C2=O (stereo not shown) [Example 99, 2-[2-(2-Amino-4-methoxy-pyrimidin-5-yl)-6-(4-chloro-phenyl)-1-isopropyl-4-oxo-4,6-dihydro-1H-pyrrolo[3,4-b]pyrrol-5-yl]-4-chloro-benzonitrile]"

# More lines, now with the values behind:
row,Compound,IC50
1,"COc1ccc(CC(=O)N(C)C)cc1-c1cc2c(n1C(C)C)C(c1ccc(Cl)cc1)N(c1cc(Cl)ccc1C)C2=O (stereo not shown) [Example 82, 2-{3-[5-(5-Chloro-2-methyl-phenyl)-6-(4-chloro-phenyl)-1-isopropyl-4-oxo-1,4,5,6-tetrahydro-pyrrolo[3,4-b]pyrrol-2-yl]-4-methoxy-phenyl}-N,N-dimethyl-acetamide]",0.152 nM
2,"COc1cnc(CC(=O)O)cc1-c1cc2c(n1C(C)C)C(c1ccc(C#N)cc1)N(c1cccc(Cl)c1F)C2=O (stereo not shown) [Example 84, {4-[5-(3-Chloro-2-fluoro-phenyl)-6-(4-cyano-phenyl)-1-isopropyl-4-oxo-1,4,5,6-tetrahydro-pyrrolo[3,4-b]pyrrol-2-yl]-5-methoxy-pyridin-2-yl}-acetic acid]",0.482 nM
3,"CNC(=O)Cc1cnc(OC)c(-c2cc3c(n2C(C)C)C(c2ccc(C#N)cc2)N(c2cccc(Cl)c2F)C3=O)c1 (stereo not shown) [Example 85, 2-{5-[5-(3-Chloro-2-fluoro-phenyl)-6-(4-cyano-phenyl)-1-isopropyl-4-oxo-1,4,5,6-tetrahydro-pyrrolo[3,4-b]pyrrol-2-yl]-6-methoxy-pyridin-3-yl}-N-methyl-acetamide]",3.16 nM
4,"COc1ncc(CC#N)cc1-c1cc2c(n1C(C)C)C(c1ccc(C#N)cc1)N(c1cccc(Cl)c1F)C2=O (stereo not shown) [Example 88, 4-[5-(3-Chloro-2-fluoro-phenyl)-2-(5-cyanomethyl-2-methoxy-pyridin-3-yl)-1-isopropyl-4-oxo-1,4,5,6-tetrahydro-pyrrolo[3,4-b]pyrrol-6-yl]-benzonitrile]",1.64 nM
5,"COc1ccc(CC(=O)O)cc1-c1cc2c(n1C(C)C)[C@H](c1ccc(Cl)cc1)N(c1cc(Cl)ccc1C)C2=O [Example 91, {3-[(S)-5-(5-Chloro-2-methyl-phenyl)-6-(4-chloro-phenyl)-1-isopropyl-4-oxo-1,4,5,6-tetrahydro-pyrrolo[3,4-b]pyrrol-2-yl]-4-methoxy-phenyl}-acetic acid]",0.061 nM
6,"COc1ccc(CC(=O)O)cc1-c1cc2c(n1C(C)C)[C@@H](c1ccc(Cl)cc1)N(c1cc(Cl)ccc1C)C2=O [Example 92, {3-[(R)-5-(5-Chloro-2-methyl-phenyl)-6-(4-chloro-phenyl)-1-isopropyl-4-oxo-1,4,5,6-tetrahydro-pyrrolo[3,4-b]pyrrol-2-yl]-4-methoxy-phenyl}-acetic acid]",41.9 nM
7,"COc1nc(N(C)C)ncc1-c1cc2c(n1C(C)C)C(c1ccc(C#N)cc1)N(c1ccc(F)c(Cl)c1)C2=O (stereo not shown) [Example 93, 4-[5-(3-Chloro-4-fluoro-phenyl)-2-(2-dimethylamino-4-methoxy-pyrimidin-5-yl)-1-isopropyl-4-oxo-1,4,5,6-tetrahydro-pyrrolo[3,4-b]pyrrol-6-yl]-benzonitrile]",0.361 nM
8,"COc1nc(N(C)C)ncc1-c1cc2c(n1C(C)C)C(c1ccc(C#N)cc1)N(c1cc(Cl)ccc1C)C2=O (stereo not shown) [Example 95, 4-[5-(5-Chloro-2-methyl-phenyl)-2-(2-dimethylamino-4-methoxy-pyrimidin-5-yl)-1-isopropyl-4-oxo-1,4,5,6-tetrahydro-pyrrolo[3,4-b]pyrrol-6-yl]-benzonitrile]",0.194 nM
9,"COc1ccccc1-c1cc2c(n1C(C)C)C(c1ccc(Cl)cc1)N(c1cc(Cl)ccc1C#N)C2=O (stereo not shown) [Example 96, 4-Chloro-2-[6-(4-chloro-phenyl)-1-isopropyl-2-(2-methoxy-phenyl)-4-oxo-4,6-dihydro-1H-pyrrolo[3,4-b]pyrrol-5-yl]-benzonitrile]",1.95 nM
10,"CNC(=O)c1ccc(OC)c(-c2cc3c(n2C(C)C)C(c2ccc(Cl)cc2)N(c2cc(Cl)ccc2C#N)C3=O)c1 (stereo not shown) [Example 97, 3-[5-(5-Chloro-2-cyano-phenyl)-6-(4-chloro-phenyl)-1-isopropyl-4-oxo-1,4,5,6-tetrahydro-pyrrolo[3,4-b]pyrrol-2-yl]-4-methoxy-N-methyl-benzamide]",0.378 nM
11,"COc1ncc(-c2cc3c(n2C(C)C)C(c2ccc(Cl)cc2)N(c2cc(Cl)ccc2C#N)C3=O)c(OC)n1 (stereo not shown) [Example 98, 4-Chloro-2-[6-(4-chloro-phenyl)-2-(2,4-dimethoxy-pyrimidin-5-yl)-1-isopropyl-4-oxo-4,6-dihydro-1H-pyrrolo[3,4-b]pyrrol-5-yl]-benzonitrile]",0.316 nM
